Data set [1] addresses T1, Recombinant human PSMA (rhPSMA) (Homo sapiens, UniProt Q04609).
T1 construct: purchased R&D systems, Abingdon, UK
Briefly: NAALADase assay (competitive inhibition, Amplex Red glutamate readout). The data set is classed as biochemical. The note with it: for IC50: rhPSMA, substrate Ac-Asp-Glu, 1 h 37 °C. As for the experimental part: Recombinant human PSMA (rhPSMA; R&D systems, Abingdon, UK) was diluted in assay buffer (50 mM HEPES, 0.1 M NaCl, pH 7.5) to 0.4 μg/mL. The substrate Ac–Asp–Glu (40 μM) was mixed with the synthesized derivatives and with a reference (PSMA-617) at concentrations ranging from 10^−6 to 10^−13 M in a final volume of 12.5 μL assay buffer. The mixtures were combined with 12.5 μL of the rhPSMA solution and incubated for 1 h at 37 °C in 384-well black polystyrene microplates (ThermoFisher, Bleiswijk, The Netherlands). The amount of glutamate released was measured by incubating with 25 μL of a working solution of the Amplex Red glutamic acid kit (ThermoFisher, Bleiswijk, The Netherlands) at 37 °C for 30 min. Fluorescence was measured with a HIDEX Sense Optical System (Goedereede, The Netherlands) with excitation at 535 nm and emission at 590 nm. Data were normalized and analyzed using a one-site total binding regression with GraphPad Prism v9.0 (GraphPad Software, San Diego, CA, USA).

Data set [2] has as its system PSMA expressing LS174T cells. Briefly: Internalization and cell uptake assay. The note with it: 2 h 37 °C. The data set is classed as cell-based, human. The method, then:
LS174T human colon carcinoma cells transfected with human PSMA were obtained from Dr. Sandra Heskamp (Radboud UMC, Nijmegen). Cells were cultured in RPMI-1640 media supplemented with 2 mM glutamine, 10% fetal bovine serum (FBS) and 0.3 mg/mL G418 (Geneticin, Sigma Aldrich, St. Louis, MO, USA).
Cells were seeded (1.2 × 10^6 cells/well) and cultured to confluency for 24 h prior to experiments. We prepared 10^−9 M solutions of [^111In]In-PSMA-617, [^111In]In-22, and [^111In]In-30 in internalization media (RPMI, 20 mM HEPES, 1% BSA, pH 7.4). The media were removed from each well, and they were rinsed twice with PBS at rt. 2 mL of the radioactive compound was then added to each well and incubated at 37 °C for 2 h. For the internalization assay, the media containing radioactive compound were removed, and each well was washed twice with cold PBS. A total of 1 mL of Glycine buffer (50 mM glycine, 100 mM NaCl, pH 2.8) was added immediately and incubated for 10 min at rt. The glycine wash was then collected into counting tubes (membrane-bound fraction). An extra wash was performed and collected in the same tubes. A total of 1 mL of NaOH (1 M) was then added to each tube and left for 15 min at rt. The lysate (internalized fraction) was then collected in separate counting tubes, together with one extra NaOH wash. Data were normalized to 1,000,000 cells and percentage added dose.

Data set [3] relates to BALB/c nude mice bearing LS174T PSMA-positive tumor xenografts. Kind of data set: Ex vivo biodistribution studies. In kind it is in vivo. The note with it: 24 h p.i. As for the experimental part: Animal experiments were performed in 8–10 weeks old male BALB/c nude mice (Janvier Labs, Le Genest-Saint-Isle, France). Animals were housed in individually ventilated cages (Blue line IVC, 4 mice per cage) under nonsterile standard conditions with cage enrichment present and free access to chlorophyll-free animal chow (Sniff GmbH, Soest, Germany) and water and acclimated for 1 week before experiments. Mice were subcutaneously inoculated with 4.0 × 10^6 LS174T cells in the right flank, diluted in 100 μL of cell suspension. Seven days after tumor cell inoculation, when xenografts were approximately 0.2–0.3 cm^3, the tracers were injected intravenously via the tail vein. All experiments were approved by the institutional Animal Welfare Committee and were conducted in accordance with the guidelines of the Revised Dutch Act on Animal Experimentation (WOD).
Mice were intravenously injected with ~1 nmol of either [^111In]In-PSMA-617, [^111In]In-22 or [^111In]In-30 with molar activity of 5 MBq/nmol for ex vivo biodistribution studies. Mice (n = 4/timepoint) were euthanized by cervical dislocation at 1, 4, and 24 h p.i. A block group was included, and mice were euthanized at 4 h p.i. Organs were collected in tubes and counted in the gamma counter, where the calibration factor was determined by measuring different known activities of indium-111.

Data set [4] in a line: Stability in phosphate-buffered saline (PBS), radio-HPLC. The data set is classed as physicochemical. The settings on record: 24 h post-incubation, 37 °C, indium-111 labeled, intact fraction. As for the experimental part: [^111In]In-22 or [^111In]In-30 (~10 MBq, 20 µL) was mixed with 80 μL of PBS (0.01 M, pH 7.4) and incubated at 37 °C for up to 24 h. A sample of the PBS solution was loaded directly onto the radio-HPLC at 1, 4, and 24 h post-incubation.

Data set [5] is described as follows: Stability in mouse serum, radio-HPLC. The settings on record: 24 h post-incubation, 37 °C, indium-111 labeled, intact fraction. In kind it is in vitro ADME. As for the experimental part:
[^111In]In-22 or [^111In]In-30 (~35 MBq, 70 µL) was mixed with 330 μL of mouse serum and incubated at 37 °C for up to 24 h. After 1, 4, and 24 h incubation, 50 μL of the mouse serum solution was added to a separate vial containing 50 µL of acetonitrile. The sample was centrifuged at 5000× g for 20 min. The supernatant was analyzed by radio-HPLC.

The nature of data set [6]: LogD7.4 by shake-flask method (PBS/n-octanol). In kind it is physicochemical. The settings on record: PBS/n-octanol (1:1 v/v); LogD7.4, PBS pH 7.4/n-octanol, indium-111 labeled compound; read-out: LogD. As for the experimental part: The distribution coefficients (LogD7.4 values) were determined by a shake-flask method, in which 2 μL (~0.5 MBq) of the labeling solution ([^111In]In-22 or [^111In]In-30) were added to an Eppendorf tube containing 1 mL of PBS (0.01 M, pH 7.4)/n-octanol (v/v, 1:1). After vigorous vortexing, the solution was centrifuged at 2500× g for 15 min for phase separation. Samples (3 × 10 μL) of the two phases were taken out and measured in a gamma counter. LogD7.4 values were calculated by using the following equation: LogD7.4 = log [(counts in octanol phase)/(counts in aqueous phase)] and the experiment was performed in triplicate.

The results in this text go back to PMC10223019, “Preclinical Evaluation of a PSMA-Targeting Homodimer with an Optimized Linker for Imaging of Prostate Cancer” (Molecules, 2023).

Structures are written as SMILES. Several values for one entry are separate records, joined by “and”; a condition that tells them apart may be missing. Equal entries are not always repeated. Where only a bound is given, the exact number is not on record here.

T1 sequence (Q04609 whole entry): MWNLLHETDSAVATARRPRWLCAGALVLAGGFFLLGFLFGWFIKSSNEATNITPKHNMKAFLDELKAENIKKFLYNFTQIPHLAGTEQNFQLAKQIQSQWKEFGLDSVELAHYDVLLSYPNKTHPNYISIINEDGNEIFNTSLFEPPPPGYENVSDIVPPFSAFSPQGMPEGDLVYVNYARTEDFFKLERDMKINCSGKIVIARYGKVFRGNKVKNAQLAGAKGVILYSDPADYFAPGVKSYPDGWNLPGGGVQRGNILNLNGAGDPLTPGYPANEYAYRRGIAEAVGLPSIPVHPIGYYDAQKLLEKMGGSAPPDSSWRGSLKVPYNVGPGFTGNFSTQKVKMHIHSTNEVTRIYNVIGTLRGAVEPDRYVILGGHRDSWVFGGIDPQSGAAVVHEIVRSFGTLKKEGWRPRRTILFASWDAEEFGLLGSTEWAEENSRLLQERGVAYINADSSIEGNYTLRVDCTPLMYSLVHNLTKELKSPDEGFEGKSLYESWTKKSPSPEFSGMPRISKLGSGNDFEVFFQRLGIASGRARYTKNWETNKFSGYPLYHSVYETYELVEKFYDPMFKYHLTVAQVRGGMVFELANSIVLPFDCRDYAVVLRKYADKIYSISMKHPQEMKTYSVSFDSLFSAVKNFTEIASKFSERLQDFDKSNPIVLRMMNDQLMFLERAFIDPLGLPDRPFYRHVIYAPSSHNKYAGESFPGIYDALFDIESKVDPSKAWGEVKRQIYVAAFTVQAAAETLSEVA

For the molecule `CC(C)C[C@H](N)[C@@H](O)CC(=O)NCCCCCC(=O)NCCCC[C@H](NC(=O)N[C@@H](CCC(=O)O)C(=O)O)C(=O)O` [Compound 10], the IC50 (as a rule, the concentration that gives 50% inhibition) in data set [1] worked out at 6.83 ± 0.5 nM.
Regarding `CC(C)C[C@H](N)[C@@H](O)CC(=O)N[C@@H](Cc1ccccc1)C(=O)NCCCCCC(=O)NCCCC[C@H](NC(=O)N[C@@H](CCC(=O)O)C(=O)O)C(=O)O` [Compound 9], the half-inhibitory concentration (IC50) in data set [1] was found to be 7 ± 0.3 nM.
In the case of `CC(C)C[C@H](N)[C@@H](O)CC(=O)NCCC(=O)NCCCCCC(=O)NCCCC[C@H](NC(=O)N[C@@H](CCC(=O)O)C(=O)O)C(=O)O` [Compound 5], the IC50 in data set [1] is 10.1 ± 3.2 nM.
Still for that read-out and setting: to `CC(C)C[C@H](NC(=O)[C@H](Cc1ccccc1)NC(=O)CN1CCN(CC(=O)O)CCN(CC(=O)O)CCN(CC(=O)O)CC1)[C@@H](O)CC(=O)NCCCCCC(=O)NCCCC[C@H](NC(=O)N[C@@H](CCC(=O)O)C(=O)O)C(=O)O` [Compound 14] belongs 1.73 ± 0.7 nM.
In the case of `NCCCCCC(=O)NCCCCC(NC(=O)NC(CCC(=O)O)C(=O)O)C(=O)O` (centres unmarked) [Compound 1], the IC50 in data set [1] was 9.86 ± 1.7 nM.
Still for that read-out and setting: to `NCCC(=O)NCCC(=O)NCCCCCC(=O)NCCCC[C@H](NC(=O)N[C@@H](CCC(=O)O)C(=O)O)C(=O)O` [Compound 3] belongs 20.1 ± 2.7 nM; to `CC(C)C[C@H](NC(=O)[C@H](Cc1ccccc1)NC(=O)[C@@H](N)Cc1ccc(O)cc1)[C@@H](O)CC(=O)NCCCCCC(=O)NCCCC[C@H](NC(=O)N[C@@H](CCC(=O)O)C(=O)O)C(=O)O` [Compound 17], 2.62 ± 0.4 nM; to `NCCC(=O)N[C@@H](Cc1ccccc1)C(=O)NCCCCCC(=O)NCCCC[C@H](NC(=O)N[C@@H](CCC(=O)O)C(=O)O)C(=O)O` [Compound 8], 4.53 ± 0.4 nM.
On the same count and under the same terms, the figure for `CC(C)C[C@H](NC(=O)[C@H](Cc1ccccc1)NC(=O)C[C@H](O)[C@@H](N)CC(C)C)[C@@H](O)CC(=O)NCCCCCC(=O)NCCCC[C@H](NC(=O)N[C@@H](CCC(=O)O)C(=O)O)C(=O)O` [Compound 19] is 1.22 ± 0.3 nM.
On to `O=C(O)CC[C@H](NC(=O)N[C@@H](CCCCNC(=O)[C@H](Cc1ccc2ccccc2c1)NC(=O)[C@H]1CC[C@H](CNC(=O)CN2CCN(CC(=O)O)CCN(CC(=O)O)CCN(CC(=O)O)CC2)CC1)C(=O)O)C(=O)O` [PSMA-617, reference compound], for which the 50% inhibitory concentration (IC50) in data set [1] was 0.9 ± 0.3 nM. In data set [2], the “Internalized fraction as share of total uptake (internalization)” value is 34.1%. Further, in data set [3], the “Tumor-to-muscle (T/M) ratio” value is listed as 26.
On to `CC(C)C[C@H](NC(=O)[C@H](Cc1ccccc1)NC(=O)[C@@H](N)CC(=O)O)[C@@H](O)CC(=O)NCCCCCC(=O)NCCCC[C@H](NC(=O)N[C@@H](CCC(=O)O)C(=O)O)C(=O)O` [Compound 16, EuK(Ahx-Sta-Phe-Asp)], for which the IC50 in data set [1] is 1.03 ± 0.5 nM.
The same measure, in the same setting: the figure for `N[C@@H](Cc1ccccc1)C(=O)NCCCCCC(=O)NCCCC[C@H](NC(=O)N[C@@H](CCC(=O)O)C(=O)O)C(=O)O` [Compound 6] is 3.17 ± 0.5 nM.
As for `CC(C)C[C@H](NC(=O)[C@H](Cc1ccccc1)NC(=O)[C@H](CC(=O)O)NC(=O)CCC(C(=O)O)N1CCN(CC(=O)O)CCN(CC(=O)O)CCN(CC(=O)O)CC1)[C@@H](O)CC(=O)NCCCCCC(=O)NCCCC[C@H](NC(=O)N[C@@H](CCC(=O)O)C(=O)O)C(=O)O` (stereo partly drawn) [Compound 22, EuK(Ahx-Sta-L-Phe-Asp-DOTA-GA)], the “IC50 of 22 (L-Phe) relative to 23 (D-Phe)” value in data set [1] (comparison in words) is listed as “two-fold better”. Moreover, the IC50 in data set [1] is 1.66 nM and 1 to 1.6 nM. In addition, the “Stability in PBS (%)” value in data set [4] is reported as > 90%. Moreover, in data set [5], the “Stability in Mouse Serum (%)” value is on record as > 90%. For the same molecule, in data set [6], the logD – broadly, the decadic logarithm of the distribution of all forms, ionised or not, between an organic phase and buffer at a given pH – is -3.26 ± 0.05.
`N[C@@H](Cc1ccccc1)C(=O)NCCC(=O)NCCCCCC(=O)NCCCC[C@H](NC(=O)N[C@@H](CCC(=O)O)C(=O)O)C(=O)O` [Compound 4]: the IC50 in data set [1] amounted to 2.86 ± 0.3 nM.
On the same count and under the same terms, to `CC(C)C[C@H](NC(=O)[C@H](Cc1ccccc1)NC(=O)[C@@H](N)Cc1ccccc1)[C@@H](O)CC(=O)NCCCCCC(=O)NCCCC[C@H](NC(=O)N[C@@H](CCC(=O)O)C(=O)O)C(=O)O` [Compound 18] belongs 3.33 ± 0.4 nM; to `N[C@@H](Cc1ccccc1)C(=O)N[C@@H](Cc1ccccc1)C(=O)NCCCCCC(=O)NCCCC[C@H](NC(=O)N[C@@H](CCC(=O)O)C(=O)O)C(=O)O` [Compound 7], 1.72 ± 0.4 nM.
Still for that read-out and setting: to `CC(C)C[C@H](NC(=O)C[C@H](O)[C@@H](N)CC(C)C)[C@@H](O)CC(=O)NCCCCCC(=O)NCCCC[C@H](NC(=O)N[C@@H](CCC(=O)O)C(=O)O)C(=O)O` [Compound 11] belongs 6.5 ± 0.4 nM.
Consider `CC(C)C[C@H](NC(=O)[C@@H](Cc1ccccc1)NC(=O)[C@H](CC(=O)O)NC(=O)CCC(C(=O)O)N1CCN(CC(=O)[O-])CCN(CC(=O)[O-])CCN(CC(=O)[O-])CC1)[C@@H](O)CC(=O)NCCCCCC(=O)NCCCC[C@H](NC(=O)N[C@@H](CCC(=O)O)C(=O)O)C(=O)O.[111In+3]` (some centres unmarked) [[^111In]In-23], for which, in data set [4], the “Stability in PBS (%)” value is given as > 90%. Besides, in data set [5], the “Stability in Mouse Serum (%)” value is recorded as > 90%.
As for `CC(C)C[C@H](NC(=O)[C@@H](Cc1ccccc1)NC(=O)[C@H](CC(=O)O)NC(=O)CCC(C(=O)O)N1CCN(CC(=O)O)CCN(CC(=O)O)CCN(CC(=O)O)CC1)[C@@H](O)CC(=O)NCCCCCC(=O)NCCCC[C@H](NC(=O)N[C@@H](CCC(=O)O)C(=O)O)C(=O)O` (stereo partly drawn) [Compound 23, EuK(Ahx-Sta-D-Phe-Asp-DOTA-GA)], the log distribution coefficient (logD) in data set [6] was -3.21 ± 0.07.
For `CC(C)C[C@H](NC(=O)CCN)[C@@H](O)CC(=O)NCCCCCC(=O)NCCCC[C@H](NC(=O)N[C@@H](CCC(=O)O)C(=O)O)C(=O)O` [Compound 13], the IC50 in data set [1] came out at 6.15 ± 0.6 nM.
The same measure, in the same setting: the figure for `NCCC(=O)NCCCCCC(=O)NCCCC[C@H](NC(=O)N[C@@H](CCC(=O)O)C(=O)O)C(=O)O` [Compound 2, EuK(Ahx-Ala)] is 23.1 ± 3.1 nM; for `CC(C)C[C@H](NC(=O)[C@H](Cc1ccccc1)NC(=O)[C@@H](N)CN)[C@@H](O)CC(=O)NCCCCCC(=O)NCCCC[C@H](NC(=O)N[C@@H](CCC(=O)O)C(=O)O)C(=O)O` [Compound 15] it is 2.1 ± 0.4 nM.
